We go through five compounds from paper PMC6832932, “Design and Selection of Novel C1s Inhibitors by In Silico and In Vitro Approaches” (Molecules, 2019).

Like-named read-outs stand apart in the source and are kept apart here.

For assay [1], the target named is T1, C1s (Homo sapiens, UniProt P09871).
T1 construct: Recombinant C1s and C1r fragments (CCP1-CCP2-SP, the γB catalytic region); made in house
T1 sequence (P09871 438-688 limits assumed): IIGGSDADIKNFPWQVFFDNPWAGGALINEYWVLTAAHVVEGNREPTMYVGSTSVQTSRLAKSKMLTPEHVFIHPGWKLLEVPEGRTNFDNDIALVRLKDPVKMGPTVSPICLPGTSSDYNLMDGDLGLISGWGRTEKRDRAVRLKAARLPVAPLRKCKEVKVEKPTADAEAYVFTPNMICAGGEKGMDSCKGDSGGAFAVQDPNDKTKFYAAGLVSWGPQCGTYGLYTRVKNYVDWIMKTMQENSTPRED
Put plainly: C1s focused library screening (fluorescent substrate Boc-Leu-Gly-Arg-AMC, 10 µM). It is filed as biochemical. The text has this: (§1) Recombinant C1s and C1r fragments (CCP1-CCP2-SP, the γB catalytic region) containing the serine protease domain were expressed in E. Coli BL21(DE3)pLysS host strain (transformed with pET-17b vector) in form of inclusion bodies; proteins were isolated, renatured and purified as published earlier. Recombinant C1s, isolated in intact proenzyme form, was activated by limited proteolysis using the recombinant, autoactivated C1r fragment. Activated C1s and C1r were separated using Q Sepharose HP (Amersham Biosciences, Little Chalfont, UK) anion exchange chromatography.
Two end-point assays have been developed for C1s inhibition assays: For screening assays a specific, fluorescent amide substrate Boc-Leu-Gly-Arg-AMC (Sigma, St. Louis, MO, USA), representing the cleavage site sequence of C2 was used with relatively high enzyme concentration (0.2 µM). Assay conditions: 20 mM HEPES (pH 7.4), 200 mM NaCl, 0.05% Tween20, 1% DMSO; 384 microplate format; 10 µL enzyme + 10 µL inhibitor compounds (final concentration: 10 µM); incubation time and temperature: 10 min, RT; then 20 µL substrate solution was added (1 mM final concentration); incubated (45 min, 30 °C) and the fluorescence have been read (355/460 nm; Wallac 1420 Victor2 microplate reader, Perkin Elmer, Waltham, MA, USA).

Assay [2] has as its target T1, C1s. Particulars: cited from earlier work.
In assay [3] the test system is C1s. Particulars: ref [47]; cited from earlier work.
The target in the next assay is T2, Human isolated Factor Xa (Homo sapiens, UniProt P00742).
T2 construct: purchased ThermoFisher Scientific (Waltham, MA, USA)
T2 sequence (P00742 235-488 limits assumed): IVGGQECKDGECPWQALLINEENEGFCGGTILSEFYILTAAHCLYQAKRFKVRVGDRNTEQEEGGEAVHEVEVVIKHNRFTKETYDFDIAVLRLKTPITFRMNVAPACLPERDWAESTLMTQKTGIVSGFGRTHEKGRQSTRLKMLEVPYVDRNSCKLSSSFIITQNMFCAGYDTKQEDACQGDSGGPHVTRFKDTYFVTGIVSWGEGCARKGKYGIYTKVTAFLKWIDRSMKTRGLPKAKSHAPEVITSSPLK
T2 sequence (P00742 41-179 partner limits assumed): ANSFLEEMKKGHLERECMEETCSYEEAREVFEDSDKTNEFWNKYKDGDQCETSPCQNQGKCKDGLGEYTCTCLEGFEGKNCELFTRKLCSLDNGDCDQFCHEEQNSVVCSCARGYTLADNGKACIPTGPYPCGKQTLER
Kind of assay: Factor Xa activity assay (fluorescent substrate Boc-Leu-Gly-Arg-AMC). It is filed as biochemical. Particulars: 10 µM compound. The protocol: Human isolated Factor Xa protein was purchased from ThermoFisher Scientific (Waltham, MA, USA). An end-point assay was carried out using the fluorescent amide substrate Boc-Leu-Gly-Arg-AMC used for C1s 10 µM screen; assay conditions: 20 mM HEPES (pH 7,8) 100 mM NaCl, 10 mM CaCl2 30 °C, 0.05% TWEEN-20, 1% DMSO; low enzyme concentration (about 1 nM); in a 96 well microplate format (in 100 µL), using non-binding black plates (Greiner).

For assay [4], the target named is T1, C1s. Kind of assay: C1s inhibition IC50 assay (thioester substrate Z-Lys-SBzl with DTNB, photometric). It counts as biochemical.
Excerpt: as §1
40 µL enzyme + 10 µL inhibitor compounds were incubated (10 min, RT), and 50 µL substrate solution (1 mM final concentration) was added; incubated for 45 min and finally absorbance was read (405 nm) with a Perkin Elmer Wallac 1420 Victor2 microplate reader.

The target of assay [5] is T1, C1s. Particulars: ref [49]; read-out: IC50 C1s, reported value; cited from earlier work.

As for `O=C(c1ccc(C(=O)n2nnc3ccccc32)cc1)n1nnc2ccccc21` [1-[4-(1,2,3-benzotriazole-1-carbonyl)benzoyl]-1,2,3-benzotriazole], the “C1s inhibitory activity (in words)” value at C1s [1] was “inactive”.
Take `CSc1nc(-c2ccco2)nn1C(=O)c1ccco1` [7 965 558]: the IC50 (usually the concentration needed to halve the response being measured) on C1s [2] (seed compounds for 2D similarity search, ref PubChem [9],[10], read-out: IC50 (seed compounds)) was 4.48 µM.
Take `O=c1oc(-c2ccccc2I)nc2ccccc12` [CID296008, 2-(2′-iodophenyl)-3,1-benzoxazin-4-one]: in the assay on C1s [3], the IC50 was 1.25 µM.
For `Cc1sc2nc(-c3ccco3)oc(=O)c2c1C` [Entry 17], the remaining activity – broadly, the signal under treatment as a percentage of the control signal – at 10 µM at Human isolated Factor Xa turned out to be 100%. On C1s [2] (ref [9]), the “C1s inhibitory activity as reported in ChEMBL and PubChem (in words)” value was “inactive”. Also, the IC50 on C1s [4] (1 mM Z-Lys-SBzl, enzyme below 1 nM, read-out: IC50 C1s) amounted to 0.549 µM.
`N=C(N)c1ccc2cc(OC(=O)c3ccc(N=C(N)N)cc3)ccc2c1` [FUT175, nafamostat, reference compound]: the IC50 was 0.32 µM on C1s [5] and 0.002 µM at C1s [4] (validation with FUT175, read-out: IC50 C1s (assay validation)).
